From patent publication US8481541B2, “Pyrrolopyrazine kinase inhibitors” (Hoffmann-La Roche Inc., priority 2010, dated 2013)

Assays:
[1] = biological target: T1, h-jak3(810-1124) (JAK3 recombinant human kinase domain) (Homo sapiens, UniProt P52333); assay: Determination of IC50 of Janus Kinase (JAK) inhibition, radioactive end-point 33P-ATP kinase assay, JAK3; type: biochemical; conditions: JAK3 kinase domain (810-1124), sf9; no additive; ATP 1.5 uM, peptide 50 uM, 20 minutes, room temperature; read-out: Ic50 h-jak3(810-1124)-sf9-c: no additive
T1 construct: Ic50 h-jak3(810-1124)-; made in house; host or cells: Sf9 insect cells
T1 sequence (P52333 810-1124): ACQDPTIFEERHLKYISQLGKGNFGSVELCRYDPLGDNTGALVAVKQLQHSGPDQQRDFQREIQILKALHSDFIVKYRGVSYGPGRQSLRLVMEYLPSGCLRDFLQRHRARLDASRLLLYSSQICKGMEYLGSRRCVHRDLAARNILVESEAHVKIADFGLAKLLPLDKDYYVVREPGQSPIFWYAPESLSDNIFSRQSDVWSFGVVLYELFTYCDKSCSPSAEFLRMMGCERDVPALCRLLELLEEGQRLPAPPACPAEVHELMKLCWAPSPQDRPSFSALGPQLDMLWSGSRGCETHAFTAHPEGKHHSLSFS
Source text: Determination of IC50 of Janus Kinase (JAK) Inhibition:
Enzymes and peptide substrate used are described below: • JAK1: Recombinant human kinase domain from Invitrogen (Cat # PV4774) • JAK3: Recombinant human kinase domain from Millipore (Cat # 14-629) or prepared. • JAK2: Recombinant human kinase domain from Millipore (Cat # 14-640) Substrate: N-terminally biotinylated 14-mer peptide derived from activation loop of JAK1 with sequence of the peptide substrate: Biotin-[…]
Assay conditions used are described below: • Assay Buffer: JAK Kinase Buffer: 50 mM Hepes [pH 7.2], 10 mM MgCl2, 1 mM DTT, 1 mg/ml BSA. The assay was carried out in this buffer. • Assay Format The kinase activity of all three JAK kinases was measured using a radioactive, end-point assay and with trace amounts of ^33P-ATP. The assays were carried out in 96-well polypropylene plates. Experimental Method:
All concentrations were final in the reaction mixture and all incubations were carried at room temperature. Assay steps are described below: • 1) Compounds were serially diluted in 100% DMSO typically at a 10× starting concentration of 1 mM. Final concentration of DMSO in the reaction was 10%. • 2) Compounds were preincubated with enzyme (0.5 nM JAK3 (commercially available), 0.2 nM JAK3 (prepared), 1 nM JAK2, 5 nM JAK1) for 10 minutes. • 3) Reactions were initiated by the addition of a cocktail of the two substrates (ATP and peptide premixed in the JAK Kinase Buffer). In the JAK2/JAK3 assays, ATP and the peptide were used at concentrations of 1.5 uM and 50 uM, respectively. JAK1 assay was carried out at an ATP concentration of 10 uM and a peptide concentration of 50 uM. • 4) The duration of the assay for JAK2 and JAK3 is 20 minutes. JAK1 assay was carried out for 40 minutes. With all three enzymes, reactions were terminated by the addition of 0.5M EDTA to a final concentration of 100 mM. • 5) 25 ul of terminated reactions were transferred to 150 ul of a 7.5% (v/v) slurry of streptavidin-coated sepharose beads in MgCl2- and CaCl2-free 1× Phosphate Buffered Saline containing 50 mM of EDTA in 96-well, 1.2 um MultiScreen-BV filter plates. • 6) After a 30-minute incubation, the beads were washed under vacuum with the following buffers: • a. 3 to 4 washes with 200 ul of 2M NaCl. • b. 3 to 4 washes with 200 ul of 2M NaCl plus 1% (v/v) phosphoric acid. • c. 1 wash with water. • 7) Washed plates were dried in a 60° C. oven for between 1 to 2 hours. • 8) 70 ul of Microscint 20 scintillation fluid was added to each well of filter plates and after at least 30 minutes of incubation, radioactive counts were measured in a Perkinelmer microplate scintillation counter.

Compound | IC50 [1] | melting point
NC(=O)CNC(=O)c1c[nH]c2ncc(C3CC3)nc12 [Compound I-1, 2-Cyclopropyl-5H-pyrrolo[2,3-b]pyrazine-7-carboxylic acid carbamoylmethyl-amide] | 287 nM | 215 to 220 °C
CC(CC(=O)NCC(F)(F)F)NC(=O)c1c[nH]c2ncc(C3CC3)nc12 (stereo not shown) [Compound I-2, 2-Cyclopropyl-5H-pyrrolo[2,3-b]pyrazine-7-carboxylic acid [1-methyl-2-(2,2,2-trifluoro-ethylcarbamoyl)-ethyl]-amide] | 200 nM | 230 to 232 °C
CCNC(=O)CC(C)NC(=O)c1c[nH]c2ncc(C3CC3)nc12 (stereo not shown) [Compound I-3, 2-Cyclopropyl-5H-pyrrolo[2,3-b]pyrazine-7-carboxylic acid (2-ethylcarbamoyl-1-methyl-ethyl)-amide] | 909 nM | 182 to 184 °C
CCCNC(=O)CC(C)NC(=O)c1c[nH]c2ncc(C3CC3)nc12 (stereo not shown) [Compound I-4, 2-Cyclopropyl-5H-pyrrolo[2,3-b]pyrazine-7-carboxylic acid (1-methyl-2-propylcarbamoyl-ethyl)-amide] | 836 nM | 198 to 200 °C
CC(CC(=O)NC1CC1)NC(=O)c1c[nH]c2ncc(C3CC3)nc12 (stereo not shown) [Compound I-5, 2-Cyclopropyl-5H-pyrrolo[2,3-b]pyrazine-7-carboxylic acid (2-cyclopropylcarbamoyl-1-methyl-ethyl)-amide] | 986 nM | 236 to 238 °C
C[C@@H](NC(=O)c1c[nH]c2ncc(C3CC3)nc12)C(=O)N(C)C [Compound I-6, 2-Cyclopropyl-5H-pyrrolo[2,3-b]pyrazine-7-carboxylic acid ((R)-1-dimethylcarbamoyl-ethyl)-amide] | 112 nM | –
CC(C)(C(N)=O)C(NC(=O)c1c[nH]c2ncc(C3CC3)nc12)C1CC1 (stereo not shown) [Compound I-7, 2-Cyclopropyl-5H-pyrrolo[2,3-b]pyrazine-7-carboxylic acid (2-carbamoyl-1-cyclopropyl-2-methyl-propyl)-amide] | 68 nM | 222 to 224 °C
C[C@@H](NC(=O)c1c[nH]c2ncc(C3CC3)nc12)C(=O)N(C)CC#N [Compound I-8, 2-Cyclopropyl-5H-pyrrolo[2,3-b]pyrazine-7-carboxylic acid [(R)-1-(cyanomethyl-methyl-carbamoyl)-ethyl]-amide] | 39.7 nM | –
C[C@H](NC(=O)c1c[nH]c2ncc(C3CC3)nc12)C(=O)N(C)C [Compound I-9, 2-Cyclopropyl-5H-pyrrolo[2,3-b]pyrazine-7-carboxylic acid ((S)-1-dimethylcarbamoyl-ethyl)-amide] | 1240 nM | –
CC(C)C[C@@H](NC(=O)c1c[nH]c2ncc(C3CC3)nc12)C(=O)N(C)C [Compound I-10, 2-Cyclopropyl-5H-pyrrolo[2,3-b]pyrazine-7-carboxylic acid ((R)-1-dimethylcarbamoyl-3-methyl-butyl)-amide] | 95 nM | –
O=C(N[C@@H]1CCCNC1=O)c1c[nH]c2ncc(C3CC3)nc12 [Compound I-11, 2-Cyclopropyl-5H-pyrrolo[2,3-b]pyrazine-7-carboxylic acid ((R)-2-oxo-piperidin-3-yl)-amide] | 315 nM | –
CN1CCC[C@@H](NC(=O)c2c[nH]c3ncc(C4CC4)nc23)C1=O [Compound I-12, 2-Cyclopropyl-5H-pyrrolo[2,3-b]pyrazine-7-carboxylic acid ((R)-1-methyl-2-oxo-piperidin-3-yl)-amide] | 178 nM | –
N#CCCN1CCC[C@@H](NC(=O)c2c[nH]c3ncc(C4CC4)nc23)C1=O [Compound I-13, 2-Cyclopropyl-5H-pyrrolo[2,3-b]pyrazine-7-carboxylic acid [(R)-1-(2-cyano-ethyl)-2-oxo-piperidin-3-yl]-amide] | 138 nM | –
